Experimental data from paper PMC10530836, “Synthesis, Molecular Docking, and Biological Evaluation of Novel Anthranilic Acid Hybrid and Its Diamides as Antispasmodics” (International Journal of Molecular Sciences, 2023).
Where two headings read alike, the source gives them in different places.

What was measured:
[1] = MTT cell viability assay; type: cell-based; conditions: human, 72 h exposure, ± SD, read-out: In vitro cytotoxicity IC50
Method: (§1) To evaluate the biocompatibility of the hybrid compounds, their in vitro antiproliferative activity was assessed in a panel of human malignant cell lines of different origin (K-562 and LAMA-84 suspension-growing myeloid leukemia cells, positive for the Philadelphia chromosome, and the urothelial bladder carcinoma cell line T-24 of adherent type). Non-malignant murine fibroblast cells (CCL-1) were also used as a screening platform. All cell lines were purchased from the German Collection of Microorganisms and Cell Cultures (DSMZ GmbH, Braunschweig, Germany). Cell cultures were cultivated in a growth medium RPMI 1640 supplemented with 10% fetal bovine serum (FBS), and 5% L-glutamine and were incubated under standard conditions of 37 °C and 5% humidified CO2 atmosphere. The effects of the newly synthesized anthranilic derivatives on cell viability were measured using a validated colorimetric assay for evaluating cell viability, known as the Mosmann MTT method. Exponential-phased cells were harvested and seeded (100 μL/well) in 96-well plates at the appropriate density (3 × 10^5 for the suspension cultures LAMA-84 and K-562 and 1.5 × 10^5 for the adherent T-24 and CCL-1 cells). Following a 24 h incubation, cells were treated with various concentrations of the experimental compounds in the concentration range of 200–12.5 μM. After an exposure time of 72 h, filter-sterilized MTT substrate solution (5 mg/mL in PBS) was added to each well of the culture plate. A further 2–4 h incubation allowed for the formation of purple insoluble formazan crystals. The latter was dissolved in isopropyl alcohol solution containing 5% formic acid prior to absorbance measurement at 550 nm. Collected absorbance values were blanked against MTT and isopropanol solution and normalized to the mean value of untreated control (100% cell viability).

[2] = system: Rhizopus sp.; assay: Antimicrobial activity, agar well diffusion; type: cell-based; conditions: Dose 0.6 mg/disk, dwell = 6 mm
From the text: (§2) Twenty tested microorganisms including six Gram-positive bacteria (Bacillus subtilis ATCC 6633, Bacillus amyloliquefaciens 4BCL-YT, Staphylococcus aureus ATCC 25923, Listeria monocytogenes NBIMCC 8632, Enterococcus faecalis ATCC 19433), six Gram-negative bacteria (Salmonella enteritidis ATCC 13076, Klebsiella sp.—clinical isolate, Escherichia coli ATCC 25922, Proteus vulgaris ATCC 6380, Pseudomonas aeruginosa ATCC 9027), two yeasts (Candida albicans NBIMCC 74, Saccharomyces cerevisiae ATCC 9763), and six fungi (Aspergillus niger ATCC 1015, Aspergillus flavus, Penicillium sp., Rhizopus sp., Mucor sp.—plant isolates, Fusarium moniliforme ATCC 38932) from the collection of the Department of Microbiology at the University of Food Technologies—Plovdiv, Bulgaria, were selected for the antimicrobial activity test. The antimicrobial activity of the samples was determined by the agar well diffusion method. The tested bacteria B. subtilis and B. amyloliquefaciens were cultured on LBG agar at 30 °C. The test bacteria S. aureus, L. monocytogenes, E. faecalis, S. enteritidis, Klebsiella sp., E. coli, P. vulgaris, and P. aeruginosa were cultured on LBG agar at 37 °C for 24 h. The yeast C. albicans was cultured on MEA at 37 °C, while S. cerevisiae was cultured on MEA at 30 °C for 24 h. The fungi A. niger, A. flavus, Penicillium sp., Rhizopus sp., Mucor sp., and F. moniliforme were grown on MEA at 30 °C for 7 days or until sporulation. The inocula of the tested bacteria/yeasts was prepared by homogenization of a small amount of biomass in 5 mL of sterile 0.5% NaCl. The inocula of tested fungi were prepared by the addition of 5 mL of sterile 0.5% NaCl into the tubes. After stirring by vortex V-1 plus (Biosan), they were filtered and replaced in other tubes before use. The number of viable cells and fungal spores was determined using a bacterial counting chamber Thoma (Poly-Optik, GmbH, Bad Blankenburg, Germany). Their final concentrations were adjusted to 10^8 cfu/mL for bacterial/yeast cells and 10^5 cfu/mL for fungal spores and then inoculated in preliminarily melted and tempered at 45–48 °C LBG/MEA agar media. Next, the inoculated media were transferred in a quantity of 18 mL in sterile Petri plates (d = 90 mm) (Gosselin™, Hazebrouck, France) and allowed to harden. Then, six wells (d = 6 mm) per plate were cut, and triplicates of 60 μL of each extract were pipetted into the agar wells. The Petri plates were incubated in identical conditions. The antimicrobial activity was determined by measuring the diameter of the inhibition zones around the wells on the 24th and 48th h of incubation. Tested microorganisms with inhibition zones of 18 mm or more were considered sensitive; moderately sensitive were those in which the zones were from 12 to 18 mm; resistant were those in which the inhibition zones were up to 12 mm or completely missing.

[3] = system: Penicillium chrysogenum; assay: Antimicrobial activity, agar well diffusion; type: cell-based; conditions: Dose 0.6 mg/disk, dwell = 6 mm
From the text: as §2

[4] = system: Salmonella enteritidis ATCC 13076; assay: Antimicrobial activity, agar well diffusion; type: cell-based; conditions: Dose 0.6 mg/disk, dwell = 6 mm
From the text: as §2

[5] = system: Escherichia coli ATCC 25922; assay: Antimicrobial activity, agar well diffusion; type: cell-based; conditions: Dose 0.6 mg/disk, dwell = 6 mm
From the text: as §2

[6] = system: Bacillus subtilis ATCC 6633; assay: Antimicrobial activity, agar well diffusion; type: cell-based; conditions: Dose 0.6 mg/disk, dwell = 6 mm
From the text: as §2

[7] = system: Aspergillus flavus; assay: Antimicrobial activity, agar well diffusion; type: cell-based; conditions: Dose 0.6 mg/disk, dwell = 6 mm
From the text: as §2

[8] = system: Micrococcus luteus 2YC-YT; assay: Antimicrobial activity, agar well diffusion; type: cell-based; conditions: Dose 0.6 mg/disk, dwell = 6 mm
From the text: as §2

[9] = system: Pseudomonas aeruginosa ATCC 9027; assay: Antimicrobial activity, agar well diffusion; type: cell-based; conditions: Dose 0.6 mg/disk, dwell = 6 mm
From the text: as §2

[10] = system: Aspergillus niger ATCC 1015; assay: Antimicrobial activity, agar well diffusion; type: cell-based; conditions: Dose 0.6 mg/disk, dwell = 6 mm
From the text: as §2

[11] = molecular target: T1, human albumin (Homo sapiens, UniProt P02768); assay: Inhibition of albumin denaturation (anti-inflammatory activity); type: biochemical; conditions: heat-induced denaturation
T1 construct: purchased Octapharma (IP) SPRL Albunorm 20
Method: Anti-denaturation assay was conducted as described by Kumari et al. with slight modifications. The reaction mixture consisted of 0.5 mL of 5% aqueous solution of human albumin (Albunorm 20, Octapharma (IP) SPRL, 1070 Anderlecht, Belgium) and 0.2 mL of the tested compound, dissolved in DMSO, at different concentrations (20–500 μg/mL). The samples were incubated at 37 °C for 15 min. After that, 2.5 mL phosphate-buffered saline (pH 6.3) was added to each tube and the samples were heated for 30 min to 80 °C and then cooled for 5 min. Turbidity was measured spectrophotometrically at 660 nm (Cary 60 UV-Vis, Agilent Technologies, Santa Clara, CA, USA). For the blank sample, a mixture of 2.5 mL buffer and 0.2 mL DMSO was used instead of the compounds, while the product control test lacked the compounds’ concentration having 0.5 mL serum albumin, and 2.5 mL buffer only. The percentage inhibition of protein denaturation was calculated as follows:Percentage of inhibition denaturation = (Absorbancecontrol − Absorbancesample) / Absorbancecontrol × 100
The control represents 100% protein denaturation.
Commercially available over-the-counter non-steroidal anti-inflammatory drugs diclofenac sodium and acetylsalicylic acid were used for comparison. Their anti-inflammatory effect was determined as a percentage of inhibition of albumin denaturation following the same protocol as for the novel compounds.

[12] = MTT cell viability assay; type: cell-based, murine; conditions: mouse, CCL-1 normal fibroblast cells (adherent); CCL-1, MTT, 72 h exposure, ± SD; read-out: In vitro cytotoxicity IC50
Method: as §1

[13] = system: Enterococcus faecalis ATCC 29212; assay: Antimicrobial activity, agar well diffusion; type: cell-based; conditions: Dose 0.6 mg/disk, dwell = 6 mm
[14] = system: Salmonella typhimurium NBIMCC 1672; assay: Antimicrobial activity, agar well diffusion; type: cell-based; conditions: Dose 0.6 mg/disk, dwell = 6 mm
From the text: as §2

[15] = system: Bacillus amyloliquefaciens 4BCL-YT; assay: Antimicrobial activity, agar well diffusion; type: cell-based; conditions: Dose 0.6 mg/disk, dwell = 6 mm
From the text: as §2

[16] = system: Fusarium moniliforme ATCC 38932; assay: Antimicrobial activity, agar well diffusion; type: cell-based; conditions: Dose 0.6 mg/disk, dwell = 6 mm
From the text: as §2

[17] = system: Proteus vulgaris ATCC 6380; assay: Antimicrobial activity, agar well diffusion; type: cell-based; conditions: Dose 0.6 mg/disk, dwell = 6 mm
From the text: as §2

[18] = system: Listeria monocytogenes NBIMCC 8632; assay: Antimicrobial activity, agar well diffusion; type: cell-based; conditions: Dose 0.6 mg/disk, dwell = 6 mm
From the text: as §2

[19] = system: Saccharomyces cerevisiae ATCC 9763; assay: Antimicrobial activity, agar well diffusion; type: cell-based; conditions: Dose 0.6 mg/disk, dwell = 6 mm
From the text: as §2

[20] = system: Klebsiella pneumoniae ATCC 13883; assay: Antimicrobial activity, agar well diffusion; type: cell-based; conditions: Dose 0.6 mg/disk, dwell = 6 mm
[21] = system: Gram-positive bacteria, Gram-negative bacteria, yeasts and fungi; design: method as in PMID 36831141; conditions: same concentration range; cited from earlier work
[22] = system: K-562, LAMA-84, T-24, CCL-1 cell lines; design: method as in PMID 36831141; conditions: reference spasmolytic drug; cited from earlier work
[23] = K-562 myeloid leukemia cells (suspension), K-562, MTT
[24] = LAMA-84 myeloid leukemia cells (suspension), LAMA-84, MTT
[25] = T-24 urothelial bladder carcinoma cells (adherent), T-24, MTT

T1 sequence (P02768 25-609): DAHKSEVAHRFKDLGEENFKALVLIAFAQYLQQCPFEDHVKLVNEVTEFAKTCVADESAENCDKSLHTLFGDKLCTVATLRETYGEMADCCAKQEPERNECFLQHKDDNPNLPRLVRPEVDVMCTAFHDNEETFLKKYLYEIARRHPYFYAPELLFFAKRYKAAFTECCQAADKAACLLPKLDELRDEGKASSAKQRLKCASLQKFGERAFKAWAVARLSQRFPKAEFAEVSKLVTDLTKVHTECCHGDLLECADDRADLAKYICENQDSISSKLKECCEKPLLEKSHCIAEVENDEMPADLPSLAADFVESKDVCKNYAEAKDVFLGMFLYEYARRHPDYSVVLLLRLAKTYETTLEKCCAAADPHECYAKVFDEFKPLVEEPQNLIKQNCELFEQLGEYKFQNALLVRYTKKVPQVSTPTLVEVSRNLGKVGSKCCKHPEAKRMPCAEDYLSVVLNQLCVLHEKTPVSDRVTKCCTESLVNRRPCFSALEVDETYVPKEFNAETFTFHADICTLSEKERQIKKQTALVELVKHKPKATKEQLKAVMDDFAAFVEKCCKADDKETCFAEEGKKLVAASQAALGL

| IC50 [11] [µM] | SMILES | IC50 at 72 h [1, 23] [µM] | IC50 at 72 h [1, 24] [µM] | IC50 at 72 h [1, 25] [µM] | Inhibition Zones [2] [mm] | Inhibition Zones [3] [mm] | Inhibition Zones [4] [mm] | Inhibition Zones [5] [mm] | Inhibition Zones [6] [mm] | Inhibition Zones [7] [mm] | Inhibition Zones [8] [mm] | Inhibition Zones [9] [mm] | Inhibition Zones [10] [mm] | IC50 at 72 h [12] [µM] | Inhibition Zones [16] [mm] | Inhibition Zones [17] [mm] | Inhibition Zones [18] [mm] | Inhibition Zones [19] [mm] | Inhibition Zones [20] [mm] | also measured |
| --- | --- | --- | --- | --- | --- | --- | --- | --- | --- | --- | --- | --- | --- | --- | --- | --- | --- | --- | --- | --- |
| 1710 | O=C(Cc1ccccc1)Nc1ccccc1C(=O)NCCc1cccc(Cl)c1 [Compound 4c, N-(3-chlorophenethyl)-2-(2-phenylacetamido)benzamide] | 27.4 ± 2.4 | 31.6 ± 1.1 | > 200 | 8 | 8 | 8 | 10 | 9 | 8 | 12 | 10 | 10 | 69.5 ± 6.1 | – | – | – | – | – | – |
| 1670 | O=C(Nc1ccccc1C(=O)NCCc1cccc(Cl)c1)c1ccccc1Cl [Compound 4d, 2-chloro-N-(2-((3-chlorophenethyl)carbamoyl)phenyl)benzamide] | 99.2 ± 8.8 | 183 ± 13.3 | > 200 | 9 | 15 | 10 | 12 | 11 | 11 | 12 | 10 | 10 | > 200 | 8 | 8 | 11 | 8 | 8 | Inhibition Zones [13]: 8 mm; Inhibition Zones [14]: 12 mm; Inhibition Zones [15]: 10 mm |
| – | O=C(NCCc1cccc(Cl)c1)c1ccccc1NC(=O)C(Cl)c1ccccc1 (centres unmarked) [Compound 4e, 2-(2-chloro-2-phenylacetamido)-N-(3-chlorophenethyl)benzamide] | 102 ± 7.9 | 193 ± 14.7 | 120 ± 9.9 | 9 | 8 | 11 | 10 | 10 | 8 | 9 | 10 | 10 | 69.1 ± 4.6 | 8 | 8 | 9 | 8 | 16 | – |
| – | CCN(CCCCOC(=O)c1ccc(OC)c(OC)c1)C(C)Cc1ccc(OC)cc1 (centres unmarked) [mebeverine] | – | – | – | – | – | – | – | – | – | – | – | – | – | – | – | – | – | – | antimicrobial activity (overall, in words) [21]: did not show any antimicrobial activity; half-inhibitory concentrations [22]: under the hundred-micromolar range |
